Laboratory results reported in US20140073694A1, “CYSTAMINE ANALOGUES FOR THE TREATMENT OF PARKINSON'S DISEASE” (UNIVERSITE LAVAL, priority 2011, published 2014).

System: 6-OHDA lesioned mice
Test: Unilateral striatal 6-OHDA mouse model, neurorescue experiment
Format: in vivo, C57BL/6 mice
Details: 10 mg/kg daily for 14 days from 3 days post-lesion
Experimental: Young adult (9-week old, 25 grams) male C57BL/6 mice were purchased from Charles River Laboratories (Montréal, QC, Canada). Animals were housed 4 per cage under standard conditions with free access to food and water, randomized and handled under the same conditions by one investigator. All experiments were performed in accordance with the Canadian Council on Animal Care and were approved by the Institutional Committee of the Centre Hospitalier de l'Université Laval (CHUL). Throughout the experiment, the health status of all mice included in the study was closely monitored for weight loss or other signs of health-related issues. All efforts were made to minimize animal pain and discomfort.
This protocol was based on the unilateral stereotaxic intra-striatal injection of 6-hydroxydopamine (6-OHDA). Intrastriatal administration of 6-OHDA creates a progressive and retrograde degenerative changes in DA neurons of the substantia nigra (Bjorklund et al., 1997; Costantini et al., 2001). Mice were anaesthetized using isoflurane and placed onto a stereotactic frame adapted for mice. 6-OHDA was dissolved at a concentration of 2 μg/μl in 0.9% saline and 0.02% ascorbic acid and 2 μl was injected in the right striatum at a rate of 0.5 μl/min. The needle was left in place for 3 min after the injection before retraction. The injection was performed using an Hamilton syringe according to the stereotaxic co-ordinates: AP: +0.04 cm, ML: −0.18 cm, DV: −0.31 cm (corresponding to the atlas of Allan P. 2008).
To serve as controls, other mice were subjected to the same surgical procedures, but only 2 μl of solvent (0.9% saline and 0.02% ascorbic acid) was injected in the same coordinates. […]
The effects of cystamine on the 6-OHDA toxicity were studied in the following experimental groups: Group I, Sham+Saline; Group II, 6-OHDA+Saline; Group III; Sham+Cystamine; Group IV, 6-OHDA+Cystamine. In total, 40 mice (n=10 per group) were utilized for each experiment, monitored daily for weight variation, and ultimately sacrificed by perfusion 24 hrs after the last cystamine (or vehicle) injection. […]
Catecholamine quantification by HPLC, TH immunohistochemistry and in situ hybridization for Nurr1 and DAT were conducted as described in Example 1.
Levels of autoradiographic labelling were quantified by computerized densitometry. […] Optical density of the autoradiograms was translated in μCi/g of tissue using ^14C radioactivity standards (ARC 146-^14C standards, American Radiolabelled Chemicals Inc., St. Louis, Mo.). Nurr1 and DAT mRNA levels were measured in the substantia nigra compacta (SNc) using similar antero-posterior levels for all sections. […]

Structure (SMILES): NCCSSCCN [cystamine, Cystamine]
- DAT mRNA levels in the SNpc (densitometry): same pattern as observed for the TH staining
- Nurr1 mRNA levels in the SNpc (densitometry): same pattern as observed for the TH staining
- striatal DA content by HPLC (vs control mice): significantly decreased levels of DA only in 6-OHDA mice treated with saline
- decrease in the total number of TH-positive neurons in the SNpc (6-OHDA+cystamine vs sham+cystamine): 27%
